Laboratory results published in patent publication US5650415A, “Quinoline compounds” (Sugen, Inc., priority 1995, dated 1997).

Columns and labels:
PDGFR = molecular target: T1, PDGFR (Homo sapiens, UniProt P09619); test: PDGF-R Cellular Assay (ELISA); format: cell-based; settings: U1242 human glioblastoma cells
T1 construct: endogenous in cells; host or cells: U1242 MG human glioblastoma cells
Description: (§1) The following examples illustrates the ability of the exemplary compounds to inhibit receptor tyrosine kinases, such as HER2 and/or EGFR. The following target cells were used for cellular kinase assays: NIH3T3 clone C7 (Honegger et al., supra) engineered to over-express human EGF receptor; NIH3T3 cells engineered to over-express a chimeric receptor containing the EGFR extracellular domain and the HER2 intracellular kinase domain; the human mammary carcinoma line BT474 (ATCC HTB2) expressing HER2; and the human glioblastoma line U1242 that expresses PDGFR-beta. Growth assays were carried out using human mammary epithelial SKBR3 (ATCC HTB30) cells (SKBR3 cells over-express HER2), SKOV3 (AT(D(D HTB77) human ovarian cancer cell line (SKOV3 cells also over-express HER2), A431 cells (A431 cells over-express EGFR) MCF7 human breast carcinoma cells, MCF7 cells overexpressing the HER2 kinase (MCF7-HER2), NIH3T3 cells, and NIH3T3 cells overexpressing the HER2 kinase (3T3-HER2.
The PDGF cellular kinase assay was carried out as follows: cells are lysed in 0.2M Hepes, 0.15M NaCl, 10% VN glycerol, 0.04% Triton X-100, 5 mM EDTA, 5 mM Na+ vanadate and 2 mM Na+ pyrophosphate; cell lysates are then added to an ELISA plate coated with an anti-PDGF receptor antibody (Genzyme); ELISA plates are coated at 0.5 μg of antibody/well in 150 μl of PBS for 18 hours at 4° C. prior to the addition of the lysate; the lysate is incubated in the coated plates for 1 hour and then washed four times in TBST (35 mM Tris-HCl pH 7.0, 0.15M NaCl, 0.1% Triton X100); anti-phosphotyrosine antibody (100 μl in PBS) is added and the mixture is incubated for 30 minutes at room temperature; the wells were then washed four times in TBST, a secondary antibody conjugated to POD (TAGO) is added to each well, and the treated well are incubated for 30 minutes at room temperature; the wells are then washed four times in TBST, ABTS/H2 O2 solution is added to each well and the wells are incubated for two minutes; absorbance is then measured at 410 nm.
U1242 MG cells were plated in 96-well plates at a concentration of 5×10^4 cells/well in cultured media containing 0.5% FBS. The cells were incubated for 24 hours. The cells were then treated with a particular compound for 2 hours followed by the addition of 100 ng/ml PDGF-BB and incubation for 10 minutes.
Cells were lysed in 0.2M Hepes, 0.15M NaCl, 10% VN glycerol, 0.04% Triton X-100, 5 mM EDTA, 5 mM Na^+ vanadate and 2 mM Na^+ pyrophosphate. Cell lysates were then added to an ELISA plate coated with an anti-PDGF receptor antibody (Genzyme). ELISA plates were coated at 0.5 μg of antibody/well in 150 μl of PBS for 18 hours at 4° C. prior to the addition of the lysate.
The lysate was incubated in the coated plates for 1 hour and then washed four times in TBST (35 mM Tris-HCl pH 7.0, 0.15M NaCl, 0.1% Triton X-100). Anti-phosphotyrosine antibody (100 μl in PBS) was added and the mixture was incubated for 30 minutes at room temperature. The wells were then washed four times in TBST, a secondary antibody conjugated to POD (TAGO) was added to each well, and the treated well were incubated for 30 minutes at room temperature. The wells were then washed four times in TBST, ABTS/H2 O2 solution was added to each well and the wells were incubated for two minutes. Absorbance was then measured at 410 nm.

EGFR = molecular target: T2, EGFR (Homo sapiens, UniProt P00533); test: EGFR Whole Cell Kinase Assay (ELISA); format: cell-based; settings: NIH3T3 clone C7 over-expressing human EGF receptor
T2 construct: expressed in transfected cells; host or cells: NIH3T3 clone C7 (EGFR/C7)
Description: as §1
EGFR Whole Cell Kinase Assay
EGFR kinase activity (EGFR-3T3 assay) in whole cells was measured as described below:
A. Coat ELISA plates (Corning, 96 well, Cat. #25805-96) with 05-101 antibody at 0.5 μg per well in PBS, 150 μl final volume/well, and store overnight at 4.sunburst. C. Coated plates are good for up to 10 days when stored at 4.sunburst. C.
B. On day of use, remove coating buffer and replace with blocking buffer (5% Carnation Instant NonFat Dry Milk in PBS). Incubate the plate, shaking, at room temperature (about 23.sunburst. C. to 25.sunburst. C.) for 30 minutes. Just prior to use, remove blocking buffer and wash plate 4 times with TBST buffer.
A. EGFR/C7 cell line (Honegger, et al., supra) can be used for this assay.
B. Choose dishes having 80-90% confluence for the experiment. Trypsinize cells and stop reaction by adding 10% CS DMEM medium. Suspend cells in DMEM medium (10% CS DMEM medium) and centrifuge once at 1000 rpm, and once at room temperature for 5 minutes.
C. Resuspend cells in seeding medium (DMEM, 0.5% bovine serum), and count the cells using trypan blue. Viability above 90% is acceptable. Seed cells in DMEM medium (0.5% bovine serum) at a density of 10,000 cells per well, 100 μl per well, in a 96 well microtiter plate. Incubate seeded cells in 5% CO2 at 37.sunburst. C. for about 40 hours.
A. Check seeded cells for contamination using an inverted microscope. Dilute drug stock (10 mg/ml in DMSO) 1:10 in DMEM medium, then transfer 5 μl to a test well for a final drug dilution of 1:200 and a final DMSO concentration of […]. Control wells receive DMSO alone. Incubate in 5% CO2 at 37° C. for one hour.
B. Prepare EGF ligand: dilute stock EGF in DMEM so that upon transfer of 10 μl dilute EGF (1:12 dilution), 25 nM final concentration is attained.
C. Prepare fresh HNTG* sufficient for 100 μl per well; and place on ice.
D. After two hours incubation with drug, add prepared EGF ligand to cells, 10 μl per well, to yield a final concentration of 25 nM. Control wells receive DMEM alone. Incubate, shaking, at room temperature, for 5 minutes.
E. Remove drug, EGF, and DMEM. Wash cells twice with PBS. Transfer HNTG* to cells, 100 μl per well. Place on ice for 5 minutes. Meanwhile, remove blocking buffer from other ELISA plate and wash with TBST as described above.
F. With a pipette tip securely fitted to a micropipettor, scrape cells from plate and homogenize cell material by repeatedly aspirating and dispensing the HNTG* lysis buffer. Transfer lysate to a coated, blocked, and washed ELISA plate. Incubate shaking at room temperature for one hour.
G. Remove lysate and wash 4 times with TBST. Transfer freshly diluted anti-Ptyr antibody to ELISA plate at 100 μl per well. Incubate shaking at room temperature for 30 minutes in the presence of the anti-Ptyr antiserum (1:3000 dilution in TBST).
H. Remove the anti-Ptyr antibody and wash 4 times with TBST. […]

T2 sequence (P00533 25-1210): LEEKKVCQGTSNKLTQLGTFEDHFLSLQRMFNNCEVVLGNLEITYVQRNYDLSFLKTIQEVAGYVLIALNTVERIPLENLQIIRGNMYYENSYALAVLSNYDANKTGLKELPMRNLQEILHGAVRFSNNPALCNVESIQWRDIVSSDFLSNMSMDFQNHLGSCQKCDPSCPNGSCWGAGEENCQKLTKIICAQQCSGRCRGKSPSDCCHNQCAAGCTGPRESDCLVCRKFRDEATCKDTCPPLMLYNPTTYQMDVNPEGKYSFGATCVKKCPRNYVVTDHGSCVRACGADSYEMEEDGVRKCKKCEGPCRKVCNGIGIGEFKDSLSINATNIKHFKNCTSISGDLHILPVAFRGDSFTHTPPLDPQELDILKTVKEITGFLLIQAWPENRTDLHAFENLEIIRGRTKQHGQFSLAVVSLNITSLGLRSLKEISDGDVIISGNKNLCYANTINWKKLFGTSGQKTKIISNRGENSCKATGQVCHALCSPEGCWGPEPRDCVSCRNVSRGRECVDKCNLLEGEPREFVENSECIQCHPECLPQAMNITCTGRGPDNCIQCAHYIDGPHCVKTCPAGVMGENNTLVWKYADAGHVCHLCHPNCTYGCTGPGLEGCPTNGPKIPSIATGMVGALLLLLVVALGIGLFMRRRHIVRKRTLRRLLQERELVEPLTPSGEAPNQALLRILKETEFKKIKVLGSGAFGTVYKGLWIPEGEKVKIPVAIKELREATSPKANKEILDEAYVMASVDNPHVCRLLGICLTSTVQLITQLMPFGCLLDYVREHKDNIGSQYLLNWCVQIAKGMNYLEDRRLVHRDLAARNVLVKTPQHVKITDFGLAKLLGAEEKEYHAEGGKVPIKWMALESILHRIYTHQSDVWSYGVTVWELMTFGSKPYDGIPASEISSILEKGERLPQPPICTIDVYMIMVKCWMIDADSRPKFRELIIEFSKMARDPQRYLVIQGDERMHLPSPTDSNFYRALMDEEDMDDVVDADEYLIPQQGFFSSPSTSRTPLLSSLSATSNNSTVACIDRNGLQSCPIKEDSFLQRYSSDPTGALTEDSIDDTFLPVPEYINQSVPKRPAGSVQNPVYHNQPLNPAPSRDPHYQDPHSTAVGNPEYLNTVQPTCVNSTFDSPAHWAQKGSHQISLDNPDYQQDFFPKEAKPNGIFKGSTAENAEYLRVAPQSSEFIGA
T1 sequence (P09619 33-1106): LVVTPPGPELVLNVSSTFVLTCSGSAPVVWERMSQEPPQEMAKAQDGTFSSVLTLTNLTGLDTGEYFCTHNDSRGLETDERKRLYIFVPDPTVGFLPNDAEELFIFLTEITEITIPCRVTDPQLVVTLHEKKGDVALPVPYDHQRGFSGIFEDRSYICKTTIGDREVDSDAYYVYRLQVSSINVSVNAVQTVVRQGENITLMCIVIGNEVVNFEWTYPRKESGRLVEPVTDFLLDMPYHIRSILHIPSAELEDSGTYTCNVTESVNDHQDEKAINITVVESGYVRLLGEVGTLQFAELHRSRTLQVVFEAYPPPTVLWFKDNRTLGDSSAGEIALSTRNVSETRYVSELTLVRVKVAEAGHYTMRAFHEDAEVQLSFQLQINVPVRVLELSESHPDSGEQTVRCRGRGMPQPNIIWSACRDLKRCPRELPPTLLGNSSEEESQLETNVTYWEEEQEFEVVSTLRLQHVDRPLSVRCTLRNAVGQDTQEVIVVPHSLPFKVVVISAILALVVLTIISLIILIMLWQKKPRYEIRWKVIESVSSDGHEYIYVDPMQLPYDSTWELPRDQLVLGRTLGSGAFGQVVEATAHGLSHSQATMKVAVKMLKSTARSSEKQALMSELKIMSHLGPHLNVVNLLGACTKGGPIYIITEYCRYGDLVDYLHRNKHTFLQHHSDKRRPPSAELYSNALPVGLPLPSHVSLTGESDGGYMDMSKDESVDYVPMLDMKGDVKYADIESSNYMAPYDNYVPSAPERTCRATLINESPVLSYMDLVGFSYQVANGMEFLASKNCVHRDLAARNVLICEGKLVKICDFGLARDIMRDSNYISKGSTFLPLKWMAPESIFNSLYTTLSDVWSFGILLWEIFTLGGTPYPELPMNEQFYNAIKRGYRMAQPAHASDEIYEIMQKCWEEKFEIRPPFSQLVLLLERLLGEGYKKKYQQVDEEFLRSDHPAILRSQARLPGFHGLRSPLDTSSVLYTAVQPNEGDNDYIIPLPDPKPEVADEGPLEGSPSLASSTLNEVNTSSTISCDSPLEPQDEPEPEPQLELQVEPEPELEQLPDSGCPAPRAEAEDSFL

IC50 (PDGFR) [µM]	IC50 (EGFR) [µM]	Structure (SMILES)
> 100	> 100	CCOC(=O)c1cnc2ccc(C(F)(F)F)cc2c1Nc1ccc(C(F)(F)F)cc1 [Compound A722, 3-Ethoxycarbonyl-4-(4-trifluoromethylphenylamino)-6-trifluoromethylquinoline]
> 100	> 100	CCOC(=O)c1cnc2ccc(C(F)(F)F)cc2c1Nc1cccc(C(F)(F)F)c1 [Compound A721, 3-Ethoxycarbonyl-4-(3-trifluoromethylphenylamino)-6-trifluoromethylquinoline]
> 100	> 100	CCOC(=O)c1cnc2ccc(C(F)(F)F)cc2c1Nc1cccc(Br)c1 [Compound A716, 4-(3-Bromophenylamino)-3-ethoxycarbonyl-6-trifluoromethylquinoline]
> 50	> 100	CCOC(=O)c1cnc2c(F)ccc(F)c2c1Sc1cccc(C(F)(F)F)c1 [Compound A713, 3-Ethoxycarbonyl-5,8-difluoro-4-(3-trifluoromethylphenylmercapto)quinoline]

Second part, the molecule before the results:

Structure (SMILES)	IC50 (PDGFR) [µM]	IC50 (EGFR) [µM]
CCOC(=O)c1cnc2c(F)cc(F)cc2c1Sc1ccc(Cl)cc1 [Compound A730, 4-(4-Chlorophenylmercapto)-6,8-difluoro-3-ethoxycarbonylquinoline]	> 50	> 50
CCOC(=O)c1cnc2c(F)ccc(F)c2c1Sc1ccc(Cl)cc1 [Compound A732, 4-(4-Chlorophenylmercapto)-5,8-difluoro-3-ethoxycarbonylquinoline]	> 50	> 100
CCOC(=O)c1cnc2cc(Cl)c(F)cc2c1Sc1ccc(Cl)cc1 [Compound A731, 7-Chloro-4-(4-chlorophenylmercapto)-6-fluoro-3-ethoxycarbonylquinoline]	> 50	> 50
